Laboratory results published in ChEMBL document CHEMBL1255496, “Pharmacokinetic-pharmacodynamic-model-guided doripenem dosing in critically ill patients” (2010).
In brackets after ≈: the same amount, converted by molar mass.

Experiments:
Format in all cases: functional
Escherichia coli [1] = test: Antimicrobial activity against Escherichia coli clinical isolates
Klebsiella pneumoniae [2] = test: Antimicrobial activity against Klebsiella pneumoniae clinical isolates
Klebsiella oxytoca = test: Antimicrobial activity against Klebsiella oxytoca clinical isolates
Citrobacter freundii = test: Antimicrobial activity against Citrobacter freundii clinical isolates
Citrobacter koseri = test: Antimicrobial activity against Citrobacter koseri clinical isolates
Enterobacter cloacae [3] = test: Antimicrobial activity against Enterobacter cloacae clinical isolates
Klebsiella aerogenes = test: Antimicrobial activity against Enterobacter aerogenes clinical isolates
Proteus mirabilis [4] = test: Antimicrobial activity against Proteus mirabilis clinical isolates
Morganella morganii = test: Antimicrobial activity against Morganella morganii clinical isolates
Serratia marcescens = test: Antimicrobial activity against Serratia marcescens clinical isolates
Pseudomonas aeruginosa [5] = test: Antimicrobial activity against Pseudomonas aeruginosa clinical isolates
Acinetobacter sp. [6] = test: Antimicrobial activity against Acinetobacter sp. clinical isolates
Acinetobacter baumannii = test: Antimicrobial activity against Acinetobacter baumannii clinical isolates
Burkholderia cepacia = test: Antimicrobial activity against Burkholderia cepacia clinical isolates
[7] = system: Stenotrophomonas maltophilia; test: Antimicrobial activity against Stenotrophomonas maltophilia clinical isolates
Haemophilus sp. = test: Antimicrobial activity against Haemophilus sp. clinical isolates
Enterococcus sp. = test: Antimicrobial activity against Enterococcus sp. clinical isolates
Enterococcus faecalis [8] = test: Antimicrobial activity against Enterococcus faecalis clinical isolates
Staphylococcus sp. [9] = test: Antimicrobial activity against Staphylococcus sp. clinical isolates
Staphylococcus aureus [10] = test: Antimicrobial activity against Staphylococcus aureus clinical isolates
Staphylococcus aureus [11] = test: Antimicrobial activity against oxacillin-susceptible Staphylococcus aureus clinical isolates
Staphylococcus sp. [12] = test: Antimicrobial activity against Coagulase-negative Staphylococcus sp. clinical isolates
Staphylococcus sp. [13] = test: Antimicrobial activity against Coagulase-negative oxacillin-susceptible Staphylococcus sp. clinical isolates
Streptococcus pneumoniae [14] = test: Antimicrobial activity against Streptococcus pneumoniae clinical isolates
Streptococcus sp. = test: Antimicrobial activity against Streptococcus sp. clinical isolates
Enterococcus faecalis [15] = test: Antimicrobial activity against Enterococcus faecalis clinical isolate obtained from critically ill patients
Streptococcus pneumoniae [16] = test: Antimicrobial activity against Streptococcus pneumoniae clinical isolate obtained from critically ill patients
Staphylococcus aureus [17] = test: Antimicrobial activity against methicillin-susceptible Staphylococcus aureus clinical isolate obtained from critically ill patients
Staphylococcus aureus [18] = test: Antimicrobial activity against methicillin-resistant Staphylococcus aureus clinical isolate obtained from critically ill patients
Acinetobacter sp. [19] = test: Antimicrobial activity against Acinetobacter sp. clinical isolate obtained from critically ill patients
Enterobacter cloacae [20] = test: Antimicrobial activity against Enterobacter cloacae clinical isolate obtained from critically ill patients
Escherichia coli [21] = test: Antimicrobial activity against Escherichia coli clinical isolate obtained from critically ill patients
Klebsiella pneumoniae [22] = test: Antimicrobial activity against Klebsiella pneumoniae clinical isolate obtained from critically ill patients
Haemophilus influenzae = test: Antimicrobial activity against Haemophilus influenzae clinical isolate obtained from critically ill patients
Proteus mirabilis [23] = test: Antimicrobial activity against Proteus mirabilis clinical isolate obtained from critically ill patients
Pseudomonas aeruginosa [24] = test: Antimicrobial activity against Pseudomonas aeruginosa clinical isolate obtained from critically ill patients
Enterobacteriaceae = test: Antimicrobial activity against Enterobacteriaceae clinical isolates
[25] = T>MIC in bacilli infected patients with moderate renal impairment at 250 mg administered as 1 hr infusion every 8 hrs
[26] = T>MIC in bacilli infected patients with severe renal impairment at 250 mg administered as 4 hrs infusion every 12 hrs
[27] = T>MIC in bacilli infected patients with renal impairment at 500 mg administered as 1 hr infusion every 8 hrs

Q: Which MIC (Escherichia coli [1]) does the source give for `C[C@@H](O)[C@H]1C(=O)N2C(C(=O)O)=C(S[C@@H]3CN[C@H](CNS(N)(=O)=O)C3)[C@H](C)[C@H]12` [DORIPENEM] here?
A: ≤ 0.03 µg/mL

Q: And the MIC50 (Escherichia coli [1])?
A: ≤ 0.03 µg/mL

Q: What about the MIC90 (Escherichia coli [1]) of the same compound?
A: 0.03 µg/mL (≈ 0.0713 µM)

Q: And the MIC50 (Klebsiella pneumoniae [2])?
A: 0.06 µg/mL (≈ 0.143 µM)

Q: And the MIC90 (Klebsiella pneumoniae [2])?
A: 0.12 µg/mL (≈ 0.285 µM)

Q: What about the MIC50 (Klebsiella oxytoca) of the same compound?
A: 0.06 µg/mL (≈ 0.143 µM)

Q: What about the MIC90 (Klebsiella oxytoca) of the same compound?
A: 0.06 µg/mL (≈ 0.143 µM)

Q: What about the MIC (Citrobacter freundii) of the same compound?
A: ≤ 0.03 µg/mL

Q: What about the MIC50 (Citrobacter freundii) of the same compound?
A: ≤ 0.03 µg/mL

Q: And the MIC90 (Citrobacter freundii)?
A: 0.06 µg/mL (≈ 0.143 µM)

Q: What about the MIC (Citrobacter koseri) of the same compound?
A: ≤ 0.03 µg/mL

Q: And the MIC50 (Citrobacter koseri)?
A: ≤ 0.03 µg/mL

Q: What about the MIC90 (Citrobacter koseri) of the same compound?
A: 0.06 µg/mL (≈ 0.143 µM)

Q: And the MIC50 (Enterobacter cloacae [3])?
A: 0.06 µg/mL (≈ 0.143 µM)

Q: And the MIC90 (Enterobacter cloacae [3])?
A: 0.5 µg/mL (≈ 1.19 µM)

Q: What about the MIC50 (Klebsiella aerogenes) of the same compound?
A: 0.06 µg/mL (≈ 0.143 µM)

Q: What about the MIC90 (Klebsiella aerogenes) of the same compound?
A: 0.12 µg/mL (≈ 0.285 µM)

Q: What about the MIC50 (Proteus mirabilis [4]) of the same compound?
A: 0.25 µg/mL (≈ 0.595 µM)

Q: And the MIC90 (Proteus mirabilis [4])?
A: 0.5 µg/mL (≈ 1.19 µM)

Q: What about the MIC50 (Morganella morganii) of the same compound?
A: 0.25 µg/mL (≈ 0.595 µM)

Q: What about the MIC90 (Morganella morganii) of the same compound?
A: 1 µg/mL (≈ 2.38 µM)

Q: What about the MIC50 (Serratia marcescens) of the same compound?
A: 0.12 µg/mL (≈ 0.285 µM)

Q: And the MIC90 (Serratia marcescens)?
A: 0.25 µg/mL (≈ 0.595 µM)

Q: What about the MIC50 (Pseudomonas aeruginosa [5]) of the same compound?
A: 0.5 µg/mL (≈ 1.19 µM)

Q: What about the MIC90 (Pseudomonas aeruginosa [5]) of the same compound?
A: 4 µg/mL (≈ 9.51 µM)

Q: And the MIC50 (Acinetobacter sp. [6])?
A: 0.5 µg/mL (≈ 1.19 µM)

Q: What about the MIC90 (Acinetobacter sp. [6]) of the same compound?
A: 32 µg/mL (≈ 76.1 µM)

Q: And the MIC50 (Acinetobacter baumannii)?
A: 1 µg/mL (≈ 2.38 µM)

Q: And the MIC90 (Acinetobacter baumannii)?
A: 32 µg/mL (≈ 76.1 µM)

Q: What about the MIC (Burkholderia cepacia) of the same compound?
A: 2 µg/mL (≈ 4.76 µM)

Q: What about the MIC50 [7] of the same compound?
A: 64 µg/mL (≈ 152 µM)

Q: And the MIC90 [7]?
A: > 128 µg/mL

Q: What about the MIC50 (Haemophilus sp.) of the same compound?
A: 0.06 µg/mL (≈ 0.143 µM)

Q: And the MIC90 (Haemophilus sp.)?
A: 0.25 µg/mL (≈ 0.595 µM)

Q: What about the MIC50 (Enterococcus sp.) of the same compound?
A: 4 µg/mL (≈ 9.51 µM)

Q: What about the MIC90 (Enterococcus sp.) of the same compound?
A: 32 µg/mL (≈ 76.1 µM)

Q: What about the MIC50 (Enterococcus faecalis [8]) of the same compound?
A: 4 µg/mL (≈ 9.51 µM)

Q: What about the MIC90 (Enterococcus faecalis [8]) of the same compound?
A: 4 µg/mL (≈ 9.51 µM)

Q: What about the MIC50 (Staphylococcus sp. [9]) of the same compound?
A: ≤ 0.03 µg/mL

Q: What about the MIC90 (Staphylococcus sp. [9]) of the same compound?
A: 16 µg/mL (≈ 38 µM)

Q: What about the MIC50 (Staphylococcus aureus [10]) of the same compound?
A: ≤ 0.03 µg/mL

Q: And the MIC90 (Staphylococcus aureus [10])?
A: 16 µg/mL (≈ 38 µM)

Q: What about the MIC (Staphylococcus aureus [11]) of the same compound?
A: ≤ 0.03 µg/mL

Q: What about the MIC50 (Staphylococcus aureus [11]) of the same compound?
A: ≤ 0.03 µg/mL

Q: What about the MIC90 (Staphylococcus aureus [11]) of the same compound?
A: 0.06 µg/mL (≈ 0.143 µM)

Q: And the MIC50 (Staphylococcus sp. [12])?
A: 0.06 µg/mL (≈ 0.143 µM)

Q: What about the MIC90 (Staphylococcus sp. [12]) of the same compound?
A: 16 µg/mL (≈ 38 µM)

Q: What about the MIC (Staphylococcus sp. [13]) of the same compound?
A: ≤ 0.03 µg/mL

Q: And the MIC50 (Staphylococcus sp. [13])?
A: ≤ 0.03 µg/mL

Q: And the MIC90 (Staphylococcus sp. [13])?
A: 0.25 µg/mL (≈ 0.595 µM)

Q: What about the MIC (Streptococcus pneumoniae [14]) of the same compound?
A: ≤ 0.03 µg/mL

Q: What about the MIC50 (Streptococcus pneumoniae [14]) of the same compound?
A: ≤ 0.03 µg/mL

Q: And the MIC90 (Streptococcus pneumoniae [14])?
A: 0.5 µg/mL (≈ 1.19 µM)

Q: What about the MIC (Streptococcus sp.) of the same compound?
A: ≤ 0.03 µg/mL

Q: What about the MIC50 (Streptococcus sp.) of the same compound?
A: ≤ 0.03 µg/mL

Q: And the MIC90 (Streptococcus sp.)?
A: 0.06 µg/mL (≈ 0.143 µM)

Q: And the MIC50 (Enterococcus faecalis [15])?
A: 4 µg/mL (≈ 9.51 µM)

Q: And the MIC90 (Enterococcus faecalis [15])?
A: 4 µg/mL (≈ 9.51 µM)

Q: What about the MIC (Streptococcus pneumoniae [16]) of the same compound?
A: ≤ 0.015 µg/mL

Q: And the MIC50 (Streptococcus pneumoniae [16])?
A: ≤ 0.015 µg/mL

Q: What about the MIC90 (Streptococcus pneumoniae [16]) of the same compound?
A: 0.5 µg/mL (≈ 1.19 µM)

Q: And the MIC50 (Staphylococcus aureus [17])?
A: 0.03 µg/mL (≈ 0.0713 µM)

Q: And the MIC90 (Staphylococcus aureus [17])?
A: 0.06 µg/mL (≈ 0.143 µM)

Q: What about the MIC50 (Staphylococcus aureus [18]) of the same compound?
A: 1 µg/mL (≈ 2.38 µM)

Q: What about the MIC90 (Staphylococcus aureus [18]) of the same compound?
A: 16 µg/mL (≈ 38 µM)

Q: What about the MIC50 (Acinetobacter sp. [19]) of the same compound?
A: 16 µg/mL (≈ 38 µM)

Q: And the MIC90 (Acinetobacter sp. [19])?
A: > 32 µg/mL

Q: And the MIC50 (Enterobacter cloacae [20])?
A: 0.06 µg/mL (≈ 0.143 µM)

Q: What about the MIC90 (Enterobacter cloacae [20]) of the same compound?
A: 0.12 µg/mL (≈ 0.285 µM)

Q: What about the MIC50 (Escherichia coli [21]) of the same compound?
A: 0.03 µg/mL (≈ 0.0713 µM)

Q: What about the MIC90 (Escherichia coli [21]) of the same compound?
A: 0.06 µg/mL (≈ 0.143 µM)

Q: What about the MIC50 (Klebsiella pneumoniae [22]) of the same compound?
A: 0.06 µg/mL (≈ 0.143 µM)

Q: And the MIC90 (Klebsiella pneumoniae [22])?
A: 0.25 µg/mL (≈ 0.595 µM)

Q: And the MIC50 (Haemophilus influenzae)?
A: 0.12 µg/mL (≈ 0.285 µM)

Q: What about the MIC90 (Haemophilus influenzae) of the same compound?
A: 0.5 µg/mL (≈ 1.19 µM)

Q: What about the MIC50 (Proteus mirabilis [23]) of the same compound?
A: 0.25 µg/mL (≈ 0.595 µM)

Q: And the MIC90 (Proteus mirabilis [23])?
A: 1 µg/mL (≈ 2.38 µM)

Q: And the MIC50 (Pseudomonas aeruginosa [24])?
A: 0.5 µg/mL (≈ 1.19 µM)

Q: What about the MIC90 (Pseudomonas aeruginosa [24]) of the same compound?
A: 8 µg/mL (≈ 19 µM)

Q: What about the MIC (Enterobacteriaceae) of the same compound?
A: ≤ 0.03 µg/mL

Q: What about the MIC50 (Enterobacteriaceae) of the same compound?
A: ≤ 0.03 µg/mL

Q: What about the MIC90 (Enterobacteriaceae) of the same compound?
A: 0.12 µg/mL (≈ 0.285 µM)

Q: And the “fT>MIC” value [25]?
A: 35%

Q: And the “fT>MIC” value [26]?
A: 35%

Q: And the “fT>MIC” value [27]?
A: 35%
